The target of data set [1] is T1, SARS-CoV-2 nsp15 endoribonuclease (endoU) (Severe acute respiratory syndrome coronavirus 2, UniProt P0DTD1). Put plainly: biochemical. The format is biochemical. Particulars: for inhibition at 10 µM: read-out: 1° FRET Assay % inhibition.
The target in data set [2] is T2, SARS-CoV-2 nsp15 (Severe acute respiratory syndrome coronavirus 2, UniProt P0DTD1). The format is binding.
Data set [3] in a line: Amplex Red redox-cycling counter screen (H2O2 generation with DTT). Conditions: 1 mM DTT; compared with redox-cycling reference DA-3003-1.
The conditions of data set [4]: 100 mg/kg oral dose, Sprague-Dawley rats, no reference given, cited from earlier work.
Data set [5] has as its system SARS-CoV-2 (isolate USA WA1/2020). The data set can be described thus: microbe, parasite or virus in culture. The format is cell-based. Particulars: Severe acute respiratory syndrome coronavirus 2; Calu-3, MOI = 0.5, 48 h, immunostaining; read-out: EC50 (infection).
Data set [6] relates to SARS-CoV-2. Put plainly: microbe, parasite or virus in culture. The format is cell-based. Particulars: for protection against viral CPE: Vero 76.
Data set [7] can be described thus: Cell viability in Calu-3 cells (cell number per well). Conditions: human, CC50, Calu-3, 48 h.
Data set [8] has as its system SARS-CoV-2. The data set can be described thus: microbe, parasite or virus in culture. The format is cell-based. Particulars: Severe acute respiratory syndrome coronavirus 2, read-out: EC90 (concentration that reduces viral replication by 90%); Caco-2, microscopic observation.
A short description of data set [9]: Mammalian cytotoxicity assay, HepG2. Conditions: human, HepG2 hepatocyte cells.
The target of data set [10] is T1, SARS-CoV-2 nsp15 endoribonuclease (endoU). The data set can be described thus: biochemical. Conditions: 0.78 μM nsp15, 500 ng poly(rA) substrate, 2 h; n = 3; read-out: RNA Cleavage Assay IC50.
For data set [11] the following is noted: mice, 100 mg/kg per day for 6 months ref 37; cited from earlier work.
For data set [12], the target named is T2, SARS-CoV-2 nsp15. The data set can be described thus: Native MS (CID/SID) ligand binding to nsp15.
Description: In native MS, nsp15 was electrosprayed from non-denaturing ammonium acetate solution in the presence of an inhibitor. Inhibitor binding can be evaluated by monitoring the increase in mass of the inhibitor-nsp15 complex compared to the apo (protein with no ligand) nsp15 protein. […] Collision-induced dissociation (CID), widely available in commercial mass spectrometers, involves acceleration of protein ions into a pressurized collision cell. Upon CID, the internal energy of the protein increases from multiple collisions with neutral gas molecules.
By increasing the acceleration voltage to 120V, CID and SID of the nsp15 hexamer both released primarily monomeric species (Fig 6B and 6C), with SID resulting in lower charged monomers and additional dimers/trimers. […] The peak cluster centered at 41.2 kDa is the apo protein (sequence mass and salt adducts).
Recombinant nsp15 was buffer exchanged into 100 mM ammonium acetate (pH adjusted to 7.5 using ammonium hydroxide) using size exclusion spin columns (Zeba Micro Spin Desalting Columns, 7k MWCO, 75 μL) following manufacturer’s protocol. The protein solution was then diluted to 5 μM, supplemented with 10 μM Mn(II) acetate, and mixed with ligands at desired concentrations. […]
A short description of data set [13]: Cytotoxicity in Vero 76 cells (CPE assay toxicity wells). Particulars: African green monkey.
A short description of data set [14]: Mammalian cytotoxicity assay, CRL-8155. Conditions: human, CRL-8155 lymphocyte cells.
Data set [15] in a line: Cytotoxicity in Caco-2 cells. Particulars: human.
Data set [16] in a line: Solubility observation in DMSO and assay buffer. Particulars: diluted in assay buffer.
Data set [17] has as its system SARS-CoV-2. Details: method as in PMID 33564093. Particulars: at 50 μM concentrations ref 15; cited from earlier work.
[18] abbreviates: primary screen at 10 μM, 25 nM nsp15, 0.5 μM substrate, 1 h.

Values joined by “and” are separate entries in the source; they are usually repeats but may differ in a detail not shown here. Equal values may be shown once. Read-outs that look alike come from different tables or passages of the source.

Turning to `Cc1cc(N)c2cc(NC(=O)Nc3ccc4nc(C)cc(N)c4c3)ccc2n1` [Aminoquinuride], the inhibition at 10 µM in [1] turned out to be 95%.

For the compound `O=C1C(NC2CCCCCCC2)=CC(=O)c2ncccc21` [Azaquinone], the inhibition at 10 µM in data set [1] (setting [18]) turned out to be 80%. For the same compound, in [2], the “DSF Assay ΔTm” value is -11.4 °C and the “nsp15 Tm lowered by” value was “more than 10 °C”. In data set [3], the “Amplex Red Assay % Activity (redox cycling)” value (shortened to “Amplex Red Assay % Activity”) is listed as greater than 100%.

For the compound `Cc1nc2c(s1)C(=O)C=C(NCCN(C)C)C2=O` [BN-82685], in [1] (setting [18]), the inhibition at 10 µM was found to be 76%. Further, in [2], the “DSF Assay ΔTm” value is -11.3 °C and the “nsp15 Tm lowered by” value is “more than 10 °C”. In addition, the “Amplex Red Assay % Activity” value in data set [3] is greater than 100%.

For the compound `CC1(C)C(=O)N=C2C1=C(O)C(=O)c1ccccc12` [BVT-948], the “1° FRET Assay % inhibition” value in data set [1] came to 90%. Also, the 50% inhibitory concentration (IC50) in data set [1] (read-out: 2° FRET Assay IC50) amounted to 4.96 µM. Also, the IC50 in data set [1] (read-out: 3° FRET Assay IC50) came out at 0.1 µM. Also, in data set [2], the “DSF Assay ΔTm” value is -11.8 °C and the “nsp15 Tm lowered by” value is “more than 10 °C”.

For the compound `CC(=O)[C@]1(O)Cc2c(O)c3c(c(O)c2[C@@H](O[C@H]2C[C@H](N)[C@H](O)[C@H](C)O2)C1)C(=O)c1c(O)cccc1C3=O` [Carubicin], in [1], the inhibition at 10 µM turned out to be 56%.

With `CC(C)(O/N=C(\C(=O)N[C@@H]1C(=O)N2C(C(=O)[O-])=C(C[n+]3ccccc3)CS[C@H]12)c1csc(N)n1)C(=O)O` [Ceftazidime], the results for the IC50 in data set [1] (2° FRET Assay IC50) and in data set [1] (3° FRET Assay IC50) were greater than 10 µM and 72 µM, respectively. In addition, the inhibition at 10 µM in data set [1] (setting [18]) came to 66%.

As to `COc1cccc2c1C(=O)c1c(O)c3c(c(O)c1C2=O)C[C@@](O)(C(=O)CO)C[C@@H]3O[C@H]1C[C@H](N)[C@H](O)[C@H](C)O1` [Doxorubicin], the IC50 in [1] (2° FRET Assay IC50) stood at 7.46 µM; in data set [1] (3° FRET Assay IC50), 9.29 µM.

Consider `O=C(Nc1ccc(O)c(O)c1)c1cccc(O)c1O` [Exebryl-1], for which the plasma concentration in data set [4] (at 1 h) was 9 µM. Further, the plasma levels result in data set [4] (by 4 h after dosing) is listed as “below 4 μM”. Also, the EC50 in data set [5] was determined as 65.6 µM; in data set [6] (Severe acute respiratory syndrome coronavirus 2, Vero 76, read-out: EC50 (concentration that reduces CPE by 50%)), 10 µM; in data set [6] (Severe acute respiratory syndrome coronavirus 2, Vero 76, neutral red staining, read-out: EC50 (CPE)), 16 µM. In [6] (summary across Vero 76, Caco-2, and Calu-3 cells), the antiviral activity is 10 to 66 µM. The CC50 at 48 h is greater than 200 µM in [7], greater than 200 µM in [9] and 37.8 µM in data set [14]. In addition, the EC90 in data set [8] amounted to 51 µM. Also, the inhibition at 10 µM in data set [1] (setting [18]) was found to be 57%. In addition, the IC50 in data set [10] worked out at 9.27 µM. The toxicity entry in data set [11] is recorded as “without evident toxicity”. This compound registered a Kd in data set [12] of roughly 12 µM. Also, the CC50 at 5 days is 52 µM in data set [13] (CC50, Vero 76, microscopic observation) and 57 µM in [13] (CC50, Vero 76 cell growth, neutral red staining). Further, the “DSF Assay ΔTm” value in data set [2] was 0.1 °C. Half-maximal cytotoxicity in data set [15] (CC50) was put at 61 µM.

For `CCc1ccccc1NC(=O)Oc1ccc2c(c1)[C@]1(C)CCN(C)O[C@@H]1N2C` [Ganstigmine], the inhibition at 10 µM in [1] stood at 51%.

For the compound `O=C(Nc1cccc(C2=NCCN2)c1)c1ccc(-c2ccc(C(=O)Nc3cccc(C4=NCCN4)c3)cc2)cc1` [MMV1580853], in [16], the solubility entry is reported as “poor solubility”. The “protection against viral CPE” value in [6] is listed as “Neither Piroxantrone nor MMV1580853 exhibited protection against viral CPE”. The CC50 at 48 h in data set [9] and in data set [14] was greater than 80 µM in each case. Besides, the inhibition at 10 µM in data set [1] (setting [18]) was determined as 62%. Further, the “binding detected on CID- or SID-released monomers” value in data set [12] (~10 μM compound, 5 μM nsp15) is recorded as “too weak to be detected”. Further, in data set [2], the “DSF Assay ΔTm” value came out at 0.1 °C. Also, in [3], the “Amplex Red Assay % Activity” value was less than 25%.

For the compound `C/C1=C2/[N-][C@H]([C@H](CC(N)=O)[C@@]2(C)CCC(=O)NC[C@@H](C)OP(=O)([O-])O[C@H]2[C@@H](O)[C@@H](n3cnc4cc(C)c(C)cc43)O[C@@H]2CO)[C@]2(C)N=C(/C(C)=C3N=C(/C=C4N=C1[C@@H](CCC(N)=O)C\4(C)C)[C@@H](CCC(N)=O)[C@]\3(C)CC(N)=O)[C@@H](CCC(N)=O)[C@]2(C)CC(N)=O.[CH3-].[Co+3]` [Mecobalamin], the “1° FRET Assay % inhibition” value in data set [1] (setting [18]) was 58%. Moreover, the IC50 is 3.34 µM in data set [1] (secondary dose response, 8-point 3-fold, top concentration 10 μM, read-out: 2° FRET Assay IC50) and 18.3 µM in [1] (tertiary dose response, expanded concentration range, read-out: 3° FRET Assay IC50). Further, in data set [2], the “DSF Assay ΔTm” value was -3.4 °C.

Consider `C[C@@H]1CNS(=O)(=O)N(c2ccc3c(C#N)nccc3c2)C1` [PF-06260414], for which the “1° FRET Assay % inhibition” value in data set [1] came to 74%. Besides, the values for the IC50 in [1] (read-out: 2° FRET Assay IC50) and in data set [1] (read-out: 3° FRET Assay IC50) were 7.69 µM and greater than 80 µM, respectively.

On to `NCCCNc1ccc2c3c(nn2CCNCCO)-c2c(O)ccc(O)c2C(=O)c13` [Piroxantrone], for which, in [6], the “protection against viral CPE” value is on record as “Neither Piroxantrone nor MMV1580853 exhibited protection against viral CPE”. The CC50 at 48 h in data set [9] was 33.9 µM; in [14], less than 1.25 µM. In data set [1] (setting [18]), the inhibition at 10 µM came out at 74%. Moreover, the “DSF Assay ΔTm” value in data set [2] was -1.1 °C.

Turning to `COC1=C(N)C(=O)c2nc(-c3nc(C(=O)O)c(C)c(-c4ccc(OC)c(OC)c4O)c3N)ccc2C1=O` [Streptonigrin], in data set [1], the “3° FRET Assay IC50” value is given as “sub-micromolar” and the inhibition at 10 µM was 89%. Moreover, half-maximal inhibition in [1] (2° FRET Assay IC50) (IC50) was put at 4.25 µM. Besides, in data set [1] (3° FRET Assay IC50), half-maximal inhibition (IC50) required 0.29 µM. In data set [2], the “DSF Assay ΔTm” value was -11.5 °C and the “nsp15 Tm lowered by” value is “more than 10 °C”. Moreover, the “Amplex Red Assay % Activity” value in data set [3] was greater than 100%.

As to `O=C1NC(=O)/C(=C\c2ccccc2)C2=C1CCCC2` [Tesimide], the inhibition at 10 µM in data set [1] (setting [18]) was determined as 82%. In data set [2], the “DSF Assay ΔTm” value was -11.7 °C and the “nsp15 Tm lowered by” value is “more than 10 °C”.

With `Cc1cc(-c2ccc(/N=N/c3c(S(=O)(=O)O)cc4cc(S(=O)(=O)O)cc(N)c4c3O)c(C)c2)ccc1/N=N/c1c(S(=O)(=O)O)cc2cc(S(=O)(=O)O)cc(N)c2c1O` [Trypan Blue], the IC50 in data set [1] (2° FRET Assay IC50) is 5.08 µM and 7.78 µM. Moreover, in data set [1] (setting [18]), the “1° FRET Assay % inhibition” value is given as 51% and the inhibition at 10 µM amounted to 58%.

For `COc1cccc2c1C(=O)c1c(O)c3c(c(O)c1C2=O)C[C@@](O)(C(=O)CO)C[C@@H]3O[C@H]1C[C@H](N)[C@H](O[C@@H]2CCCCO2)[C@H](C)O1` [pirarubicin], the IC50 came to 3.78 µM in data set [1] (2° FRET Assay IC50) and 5.98 µM in data set [1] (3° FRET Assay IC50). The inhibition at 10 µM in data set [1] came to 66%. Further, the “DSF Assay ΔTm” value in data set [2] amounted to 0.4 °C.

As for `N=C1CCCN1Cc1nc(O)nc(O)c1Cl` [tipiracil], the antiviral activity entry in [17] is “only minimal antiviral activity”.

On to `CC(=O)O[C@H]1C[C@@H]2CC[C@@H]3[C@H](CC[C@@]4(C)[C@H]3C[C@H]([N+]3(C)CCCCC3)[C@@H]4OC(C)=O)[C@@]2(C)C[C@@H]1N1CCCCC1` [vecuronium bromide], for which the inhibition at 10 µM in data set [1] came out at 61%.

As for `CC1(C)CCC2=C(O1)c1ccccc1C(=O)C2=O` [β-Lapachone], in data set [1], the “3° FRET Assay IC50” value is “sub-micromolar” and the inhibition at 10 µM came out at 73%. Besides, in data set [1] (2° FRET Assay IC50), the IC50 amounted to 2.78 µM. This compound also had an IC50 in data set [1] (3° FRET Assay IC50) of 0.31 µM. Also, in data set [2], the “DSF Assay ΔTm” value was -11.5 °C. Also, the “nsp15 Tm lowered by” value in data set [2] (negative Tm shift, 100 μM ligand) is “more than 10 °C”. Besides, in [3], the “Amplex Red Assay % Activity” value is listed as greater than 100%.

The inhibition is how much of the control response was suppressed. The term IC50 denotes the concentration that gives 50% inhibition. Broadly, the CC50 is the concentration that lowers cell viability or growth by half. Read a high CC50 as lower toxicity to the cells. As a reminder, the Kd is the constant that tells how readily two partners part at equilibrium. A low value points to higher affinity.

Source of the values: article PMC8062000, “High-throughput screening of the ReFRAME, Pandemic Box, and COVID Box drug repurposing libraries against SARS-CoV-2 nsp15 endoribonuclease to identify small-molecule inhibitors of viral activity” (PLoS ONE, 2021).
